This is an account of results in patent US11730705B2, “Small molecule CMKLR1 antagonists in inflammatory disease” (The Board of Trustees of the Leland Stanford Junior …, priority 2019, dated 2023).

“And” between values parts separate entries of the source, which are not always exact repeats. Equal values may be shown once. Read-outs that look alike come from different tables or passages of the source.

Data set [1] deals with IMQ-induced psoriasis in mice. Nature of the data set: IMQ-induced psoriasis model. Format: in vivo, mouse. Here is the method:
FIG. 11A-11G. […] Representative images of the same mouse shown over time. […] Mice were treated twice daily with IMQ±dexamethasone (DEX, 200 ug/mouse) 1 h prior to IMQ treatment. […] (FIG. 11G) NK cell (CD45+DX5+CD11b-CD3-CD19-) infiltration into lesional or non-lesional adjacent skin was determined by flow cytometry (6 day timepoint) for IMQ-treated WT and chemerin KO mice. mean±SEM, n=4 mice per genotype, ***p<0.005 by 2-tailed t-test; **p<0.01 by 2-tailed t-test; *p<0.05 by 1-tailed t-test.
FIG. 13A-13D. […] Fold change with respect to day 0 measurements are shown. […] For A-C, n=3 untreated, n=5 IMQ-treated mice of each genotype, mean±SEM, *p<0.05 by 2-tailed t-test.
FIG. 15A-15D. […] IC50 values were determined based on 6-point dose-response curves for each compound. (FIG. 15A) α-NETA. […] (FIG. 15A-15C) mean±SEM, n=3-18 independent experiments. […] 0.2 ml each compound (in 10% captisol) or vehicle control was administered by oral gavage beginning one day prior to psoriasis induction. Back skin thickness was measured daily and normalized to day 0. mean±SEM, n=10 mice for vehicle and α-NETA groups pooled from two independent trials; n=3 mice for (27) and (6) from one trial.

For data set [2], the target named is T1, Cyp3A4 (Homo sapiens, UniProt P08684). Nature of the data set: Cyp enzyme inhibition, human liver microsomes. Format: in vitro ADME. The arrangement: Human liver microsomes were pre-incubated with 7 concentrations; tissue Cyprotex/Evotec AG; host or cells: human liver microsomes. How it is done:
Cyp enzyme inhibition. Human liver microsomes were pre-incubated with 7 concentrations ([…], duplicate wells) of α-NETA for 30 min.
Background: Liver microsomes are vesicles of endoplasmic reticulum, rich in cytochrome P450 enzymes.

Data set [3] has as its target T1, Cyp3A4. To be noted: substrate luciferin-6′ phenylpiperazinylyl; read-out: Cyp3A4 IC50 listed in PubChem; cited from earlier work.
The target in data set [4] is Pregnane X receptor (PXR) (Homo sapiens, UniProt O75469). Nature of the data set: Cyp induction (PXR luciferase reporter). The format is cell-based. To be noted: concentrations up to 50 uM. Here is the method:
Pregnane X receptor (PXR) activation was used as a marker of Cyp induction.
Pregnane X receptor (PXR) activation was used as a marker of Cyp induction. An engineered human hepatoma cell line with a PXR luciferase reporter was incubated with the indicated concentrations of α-NETA, Rifampicin (positive control), or DMSO (negative control), and luciferase activity assessed (Cyprotex/Evotec AG).
(In a reporter assay the amount or activity of a reporter protein is the signal.)

The target in a further data set is Cyp1A2 (Homo sapiens, UniProt P05177). To be noted: PubChem BioAssay ID 1476; read-out: Cyp Inhibition IC50 (μM), Cyp1A2; cited from earlier work.
Sequence of Cyp1A2 (P05177 whole entry): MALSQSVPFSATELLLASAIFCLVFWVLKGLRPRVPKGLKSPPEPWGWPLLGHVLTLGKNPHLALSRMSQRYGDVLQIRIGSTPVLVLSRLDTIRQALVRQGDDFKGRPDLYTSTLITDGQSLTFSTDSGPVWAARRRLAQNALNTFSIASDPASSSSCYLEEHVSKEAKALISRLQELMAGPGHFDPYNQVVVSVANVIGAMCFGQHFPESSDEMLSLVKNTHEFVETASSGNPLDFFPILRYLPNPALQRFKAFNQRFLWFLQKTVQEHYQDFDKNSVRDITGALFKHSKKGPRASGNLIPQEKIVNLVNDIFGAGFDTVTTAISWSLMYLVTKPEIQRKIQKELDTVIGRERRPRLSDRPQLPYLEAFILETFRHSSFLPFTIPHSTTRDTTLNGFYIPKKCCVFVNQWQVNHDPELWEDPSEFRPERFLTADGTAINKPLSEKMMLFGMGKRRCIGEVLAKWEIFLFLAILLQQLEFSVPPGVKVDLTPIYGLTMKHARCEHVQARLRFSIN
In another data set the test system is C57/BL6 mice. Nature of the data set: α-NETA acute single dose toxicity (LD50). The format is in vivo, mouse. An excerpt:
FIG. 3. Acute single dose toxicity (LD50) of α-NETA. […] The remaining mice were monitored for 14 days. Graph depicts lethality at each dose, n=3 per mice/dose.

The conditions of data set [5]: 5 μg into the uterine horn on days 6, 9 and 12 following fertilization; cited from earlier work.
For a further data set, the system named is EAE in C57BL/6 mice. Nature of the data set: EAE induced by MOG35-55/CFA immunization. The following applies: FIG. 1C; 10 mg/kg daily; compared with Tecfidera or vehicle control. Format: in vivo, mouse. Here is the method:
FIG. 1A-1D. […] (FIG. 1D) The integrated clinical score over time for each animal was calculated as area under the curve (AUC).
EAE. […] CFA consisted of 5 mg/ml mTB (Mycobacterium-tuberculosis H37 Ra, BD Difco) in IFA (Incomplete Freund's Adjuvant, Sigma). MOG35-55 was reconstituted at 2 mg/ml in PBS. Mice also received 200 ng pertussis toxin (List Biological Laboratories, Inc) by i.p. injection at the time of immunization and two days later. […] For a direct comparison to α-NETA, the DMF and compound doses were also 10 mg/kg in 10% captisol. Mice were monitored daily for clinical disease and scored (0=normal/healthy, 1=limp tail, 2=hindlimb weakness, 3=hindlimb paralysis, 4=hindlimb and forelimb paralysis, 5=moribund/dead).

T1 sequence (P08684 whole entry): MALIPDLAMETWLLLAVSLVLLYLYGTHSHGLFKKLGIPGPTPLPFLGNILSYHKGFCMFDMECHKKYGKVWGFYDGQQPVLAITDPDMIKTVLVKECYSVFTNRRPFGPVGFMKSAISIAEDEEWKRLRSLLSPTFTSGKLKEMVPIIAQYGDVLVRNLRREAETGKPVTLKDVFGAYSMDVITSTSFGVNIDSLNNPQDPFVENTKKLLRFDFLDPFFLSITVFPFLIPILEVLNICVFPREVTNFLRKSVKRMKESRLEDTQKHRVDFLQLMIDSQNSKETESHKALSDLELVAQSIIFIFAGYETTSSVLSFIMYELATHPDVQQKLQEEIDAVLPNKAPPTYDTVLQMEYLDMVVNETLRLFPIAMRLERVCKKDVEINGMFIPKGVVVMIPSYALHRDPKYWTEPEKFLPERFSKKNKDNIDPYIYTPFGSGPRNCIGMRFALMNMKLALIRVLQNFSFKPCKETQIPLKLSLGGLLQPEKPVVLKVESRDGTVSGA
Sequence of Pregnane X receptor (PXR) (O75469 whole entry): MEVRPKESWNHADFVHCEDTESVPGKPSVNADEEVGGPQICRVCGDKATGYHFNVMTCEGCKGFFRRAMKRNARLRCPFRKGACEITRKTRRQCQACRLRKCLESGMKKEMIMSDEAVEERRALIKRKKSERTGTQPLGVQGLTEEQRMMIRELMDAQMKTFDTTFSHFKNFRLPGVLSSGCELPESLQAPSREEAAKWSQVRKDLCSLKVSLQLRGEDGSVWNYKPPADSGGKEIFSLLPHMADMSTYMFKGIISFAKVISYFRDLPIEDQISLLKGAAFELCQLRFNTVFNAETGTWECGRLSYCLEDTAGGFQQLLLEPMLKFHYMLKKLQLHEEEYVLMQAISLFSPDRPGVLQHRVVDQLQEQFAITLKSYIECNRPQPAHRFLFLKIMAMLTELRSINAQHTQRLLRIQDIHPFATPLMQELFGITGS

What is called IC50 is the midpoint of a concentration-inhibition curve. Turning to `C[N+](C)(C)CCC(=O)c1cccc2ccccc12.[I-]` [α-NETA, 2-(α-naphthoyl) ethyltrimethylammonium iodide], the back skin thickening result in data set [1] (10 mg/kg s.c., 24 h timepoint) was “significantly suppressed”. The back skin acanthosis entry in data set [1] (30 mg/kg p.o. daily, 7 days, vs vehicle control) is given as “significantly diminished”. Also, the “clinical features of experimental psoriasis” value in data set [1] (oral gavage in 10% captisol, FIG. 15D) is on record as “suppressed”. In addition, the IC50 is 7.4 µM and 7.5 µM at Cyp3A4 [2] (human liver microsomes, substrate Midazolam, read-out: Cyp Inhibition IC50 (μM), Cyp3A4); 6.9 µM on Cyp3A4 [2] (substrate testosterone, read-out: Cyp3A4 IC50); 0.2 µM at Cyp3A4 [3]; 8 µM on Cyp1A2. For the same compound, the “PXR activation (marker of Cyp induction)” value in data set [4] was “did not induce substantial PXR activity”. Also, the “calculated LD50, acute single dose” value in the data set on C57/BL6 mice (p.o., mice, 10% captisol) is 873 mg/kg. Further, the lethality result with C57/BL6 mice (two highest doses (3000, 1000 mg/kg) by oral gavage) is recorded as “Lethal effects were observed within hours”. Moreover, the embryo resorption entry in data set [5] is reported as “significant embryo resorption”. Moreover, in the data set with EAE in C57BL/6 mice, the “severity of clinical EAE” value was “significantly suppressed”.
